Measurements as given in patent US7452997B2 (priority 2004, dated 2008).
Like-named read-outs stand apart in the source and are kept apart here.

Key:
human CB2 receptor [1] = target: T1, human CB2 receptor (Homo sapiens, UniProt P34972); experiment: Functional cell-based assay, CB2 receptor mediated change in CRE β-gal expression (agonist / inverse agonist); conditions: SK-N-MC cells, forskolin
From the text: Functional Cell-Based Assay for CB1 or CB2 Agonist and Inverse Agonist Effects on Intra-Cellular Adenylate Cyclase Activity
The CB1 and CB2 receptors are G-protein coupled receptors (GPCR) which influence cell function via the Gi-protein. These receptors modulate the activity of intracellular adenylate cyclase which in turn produces the intracellular signal messenger cyclic-AMP (cAMP).
At baseline, or during non-ligand bound conditions, these receptors are constitutively active and tonically suppress adenylate cyclase activity. The binding of an agonists causes further receptor activation and produces additional suppression of adenylate cyclase activity. The binding of an inverse agonist inhibits the constitutive activity of the receptors and results in an increase in adenylate cyclase activity.
By monitoring intracellular adenylate cyclase activity, the ability of compounds to act as agonists or inverse agonists can be determined.
Test compounds were evaluated in SK-N-MC cells which, using standard transfection procedures, were stably transfected with human cDNA for pcDNA3-CRE β-gal and pcDNA3 CB1 receptor (human) or pcDNA3 CB2 receptor (human). By expressing CRE β-gal, the cells produced β-galactosidase in response to CRE promoter activation by cAMP. Cells expressing CRE β-gal and either the human CB1 or CB2 receptor will produce less β-galactosidase when treated with a CB1/CB2 agonist and will produce more β-galactosidase when treated with a CB1/CB2 inverse agonist.
The cells were grown in 96-well plates under standard cell culture conditions at 37° C. in a 5% CO2 atmosphere. After 3 days, the media was removed and a test compound in media (wherein the media was supplemented with 2 mM L-glutamine, […] sodium pyruvate, 0.1% low fatty acid FBS (fetal bovine serum) and antibiotics) was added to the cell. The plates were incubated for 30 minutes at 37° C. and the plate cells were then treated with forskolin over a 4-6 hour period, then washed and lysed. The β-galactosidase activity was quantitated using commercially available kit reagents (Promega Corp. Madison, Wis.) and a VMAX Plate Reader (Molecular Devices, Inc).
For cells expressing CRE β-gal and the CB2 receptor, CB2 agonists reduced β-galactosidase activity in a dose-dependent manner and CB2 inverse agonists increased β-galactosidase activity in a dose-dependent manner.
The change in β-galactosidase activity was determined by setting a vehicle treated cell's activity value at 100% and expressing the β-galactosidase activity measured in a corresponding compound treated cell as a percent of the vehicle treated cell activity.
The EC50 values for compounds tested were calculated by linear regression and were obtained from studies in which varying compound concentrations were used.

human CB2 receptor [2] = target: T1, human CB2 receptor; experiment: Binding assay, cannabinoid CB2 receptor ([3H]-CP-55,940 displacement); conditions: Cannabinoid CB2 Receptor Binding IC50, human CB2 receptor, SK-N-MC cell membranes, radioligand CP-55,940 0.2 nM
How it was run: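 Displacement of [3H]-CP-55,940 (0.2 nM) was measured over 90 min at 30 °C (pH 7.5 Tris/MgCl2/EDTA buffer with BSA), using semi-purified membranes of human CB2-transfected SK-N-MC cells. Bound counts collected on GF/C filters, 10 uM WIN 55,212 as nonspecific control; IC50 from varied concentrations.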

human CB1 receptor = target: T2, human CB1 receptor (Homo sapiens, UniProt P21554); experiment: biochemical; type: binding
T2 construct: expressed in transfected cells; host or cells: SK-N-MC cells, stably transfected with pcDNA3 CB-1 (human); semi-purified membrane pellet
T2 sequence (P21554 whole entry): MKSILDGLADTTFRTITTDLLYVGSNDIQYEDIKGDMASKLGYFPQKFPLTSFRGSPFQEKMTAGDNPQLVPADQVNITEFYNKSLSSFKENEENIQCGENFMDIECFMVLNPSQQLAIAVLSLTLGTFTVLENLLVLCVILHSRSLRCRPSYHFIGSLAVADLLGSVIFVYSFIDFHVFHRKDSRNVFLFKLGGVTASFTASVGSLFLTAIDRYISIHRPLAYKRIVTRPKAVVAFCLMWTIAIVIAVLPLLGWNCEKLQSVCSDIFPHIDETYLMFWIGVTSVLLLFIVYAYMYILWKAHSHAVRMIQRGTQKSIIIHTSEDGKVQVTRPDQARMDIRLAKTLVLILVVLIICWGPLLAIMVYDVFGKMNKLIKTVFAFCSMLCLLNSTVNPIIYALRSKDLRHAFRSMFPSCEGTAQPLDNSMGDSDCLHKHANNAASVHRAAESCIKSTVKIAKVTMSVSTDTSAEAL
How it was run: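 Radioligand binding was run at 30° C for 90 minutes, pH 7.5 Tris buffer containing 0.5 mg/mL fatty acid free BSA, on semi-purified membranes of stably transfected SK-N-MC cells. Filter-bound radioactivity was scintillation counted, with IC50 obtained by linear regression across compound concentrations.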

[3] = agonist, read-out: CB2 Receptor Functional Agonist EC50
[4] = inverse agonist, read-out: CB2 Receptor Functional Inverse Agonist EC50

T1 sequence (P34972 whole entry): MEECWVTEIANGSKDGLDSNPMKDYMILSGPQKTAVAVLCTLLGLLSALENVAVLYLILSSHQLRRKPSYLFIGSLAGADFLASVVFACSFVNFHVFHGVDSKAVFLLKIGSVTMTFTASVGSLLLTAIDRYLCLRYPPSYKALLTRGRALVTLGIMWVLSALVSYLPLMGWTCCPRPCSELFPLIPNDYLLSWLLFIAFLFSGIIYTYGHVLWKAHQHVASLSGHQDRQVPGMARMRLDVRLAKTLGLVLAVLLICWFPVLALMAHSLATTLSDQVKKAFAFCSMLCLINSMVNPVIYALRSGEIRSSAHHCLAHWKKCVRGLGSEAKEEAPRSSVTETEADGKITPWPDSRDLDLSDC

| Structure (SMILES) | EC50 (human CB2 receptor [1]; [3]) [nM] | IC50 (human CB2 receptor [2]) [nM] | IC50 (human CB1 receptor) [nM] | EC50 (human CB2 receptor [1]; [4]) [nM] | IC50 (human CB1 receptor; human CB1 receptor, SK-N-MC cell membranes, radioligand CP-55,940 0.2 nM, read-out: Cannabinoid CB1 Receptor Binding IC50) [nM] |
| --- | --- | --- | --- | --- | --- |
| CCOC(=O)[C@@H]1CCCC[C@@H]1NC(=O)c1nn(C2CCCCC2)c2c1CCCC2 [compound 36] | 5 | 12.8 | 105 | – | – |
| COC(=O)[C@@H]1CCc2c(c(C(=O)NC3C4CC5CC(C4)CC3C5)nn2C2CCCCC2)C1 (some centres unmarked) [compound 219] | – | 4 | 100 | 320 | – |
| O=C(NC1C2CC3CC(C2)CC1C3)c1nn(C2CCCCC2)c2c1CC(NC(=O)C(F)(F)F)CC2 (centres unmarked) [compound 87] | 250 | 26.6 | 855 | – | – |
| COC(=O)C(Cc1ccc(O)cc1)NC(=O)c1nn(Cc2ccccc2)c2c1CCCC2 (centres unmarked) [compound 75] | 0.1 | 0.7 | 23.7 | – | – |
| CCOC(=O)C1CCc2c(C(=O)NCC34CC5CC(CC(C5)C3)C4)nn(Cc3ccccc3)c2C1 (centres unmarked) [compound 156] | – | 2 | 97 | 35 | – |
| COC(=O)C(Cc1cccc(OCc2ccccc2)c1)NC(=O)c1nn(-c2ccc(OC)cc2)c2c1CCCC2 (centres unmarked) [compound 3] | – | 428 | – | 190 | – |
| CCOC(=O)[C@H]1CCc2c(c(C(=O)NC(C)C34CC5CC(CC(C5)C3)C4)nn2C2CCCCC2)C1 (some centres unmarked) [compound 215] | – | 200 | – | 220 | – |
| CCOC(=O)C1CCc2c(c(C(=O)NC(C)C34CC5CC(CC(C5)C3)C4)nn2-c2ccccc2)C1 (centres unmarked) [compound 116] | – | 990 | – | 500 | – |
| CC(NC(=O)c1nn(C2CCCCC2)c2c1CCCC2)[C@H]1CC[C@H](C)CC1 (some centres unmarked) [compound 248] | – | 20 | – | – | 160 |
| COC(=O)C(Cc1ccc(O)cc1)NC(=O)c1nn(C2CCCCC2)c2c1CCCC2 (centres unmarked) [compound 77] | – | 3 | 52 | – | – |
| CCOC(=O)C1=C(NC(=O)c2nn(C3CCCCC3)c3c2CCCC3)CCC1 [compound 57] | – | 2200 | 10900 | – | – |
| C[C@H](NC(=O)c1nn(Cc2ccccc2)c2c1CCCC2)C1CCCCC1 [compound 201] | – | 2 | 1.7 | – | – |
| CCOC(=O)[C@@H]1C2C=CC(C2)[C@@H]1NC(=O)c1nn(C2CCCCC2)c2c1CCCC2 (some centres unmarked) [compound 280] | – | 679 | 3600 | – | – |
| COc1ccccc1C(Cc1nn(C2CCCCC2)c2c1CCCC2)C(=O)NC1C2(C)CCC(C2)C1(C)C (centres unmarked) [Cpd 333, 3-(1-cyclohexyl-4,5,6,7-tetrahydro-1H-indazol-3-yl)-2-(2-methoxy-phenyl)-N-(1,3,3-trimethyl-bicyclo[2.2.1]hept-2-yl)-propionamide] | – | 2900 | 5700 | – | – |
| Cc1ccc(Cn2nc(C(=O)NC3C4(C)CCC(C4)C3(C)C)c3c2CCCC3)cc1 (centres unmarked) [compound 125] | – | 2.2 | 26 | – | – |
| COc1ccccc1CCNC(=O)c1nn(C2CCCCC2)c2c1CCCC2 [compound 236] | – | 940 | 25400 | – | – |
| O=C(Nc1nn(C2CCCCC2)c2c1CCCC2)C1CCCCC1 [compound 180] | – | 1700 | 700 | – | – |
| CC(c1ccccc1)n1nc(C(=O)NC23CC4CC(CC(C4)C2)C3)c2c1CCCC2 (centres unmarked) [compound 244] | – | 79 | 300 | – | – |
| CC(NC(=O)c1nn(C2CCCCC2)c2c1CC(C(N)=O)CC2)C12CC3CC(CC(C3)C1)C2 (centres unmarked) [compound 224] | – | 1200 | 1500 | – | – |
| O=C(CCc1nn(C2CCCCC2)c2c1CCCC2)N[C@@H]1CCCC[C@H]1CO [compound 51] | – | 8420 | 15200 | – | – |
| CCOC(=O)C1CCc2c(C(=O)NC3C4CC5CC(C4)CC3C5)nn(Cc3ccccc3)c2C1 (centres unmarked) [compound 230] | – | 1 | 10 | – | – |
| CN(C)C(=O)C1CCc2c(c(C(=O)NC3C4(C)CCC(C4)C3(C)C)nn2C2CCCCC2)C1 (centres unmarked) [compound 235] | – | 1400 | 3600 | – | – |
| CCOC(=O)[C@@H]1C2CCC(C2)[C@@H]1NC(=O)c1c2c(nn1Cc1ccccc1)CCCC2 (some centres unmarked) [compound 273] | – | 414 | 1590 | – | – |

| Structure (SMILES) | EC50 (human CB2 receptor [1]; [3]) [nM] | IC50 (human CB2 receptor [2]) [nM] | IC50 (human CB1 receptor) [nM] | EC50 (human CB2 receptor [1]; [4]) [nM] | IC50 (human CB1 receptor; human CB1 receptor, SK-N-MC cell membranes, radioligand CP-55,940 0.2 nM, read-out: Cannabinoid CB1 Receptor Binding IC50) [nM] |
| --- | --- | --- | --- | --- | --- |
| COC(=O)C(Cc1c[nH]c2ccccc12)NC(=O)c1nn(Cc2ccccc2)c2c1CCCC2 (centres unmarked) [compound 83] | – | 20 | 38 | – | – |
| CC1(C)C2CCC1(C)C(NC(=O)c1nn(C3CCCCC3)c3c1CCCC3)C2 (centres unmarked) [compound 25] | – | 1.6 | 75.3 | – | – |
| CC12CCC(C1)C(C)(C)C2NC(=O)c1nn(-c2ccc(Cl)cc2Cl)c2c1CCCC2 (centres unmarked) [compound 129] | – | 1.7 | 5.7 | – | – |
| O=C(NC12CC3CC(CC(C3)C1)C2)c1nn(-c2ccc(F)cc2)c2c1CCCC2CCc1ccccc1 (centres unmarked) [compound 150] | – | 40 | 130 | – | – |
| COC(=O)C1CCc2c(c(C(=O)NC3C4CC5CC(C4)CC3C5)nn2C2CCCCC2)C1 (centres unmarked) [compound 231] | – | – | 638 | 35 | – |
| O=C(NC1C2CC3CC(C2)CC1C3)c1nn(C2CCCCC2)c2c1CCCC2 (centres unmarked) [compound 45] | – | 5.6 | 40 | – | – |
| CCC1CCCc2c(C(=O)NC3C4(C)CCC(C4)C3(C)C)nn(-c3ccc(F)cc3)c21 (centres unmarked) [compound 192] | – | 2 | 60 | – | – |
| C[C@H](NC(=O)c1nn(Cc2ccccc2)c2c1CCCC2)c1ccccc1 [compound 200] | – | 1 | 8 | – | – |
| CCOC(=O)C1CCc2c(c(C(=O)N[C@H](C)C3CCCCC3)nn2C2CCCCC2)C1 (some centres unmarked) [compound 251] | – | 2.8 | – | 23 | – |
| O=C(NNC1CCCCC1)c1nn(-c2ccc(F)cc2)c2c1CCCC2 [compound 30] | – | 1470 | 7890 | – | – |
| O=C(NC1CCCCCCC1)c1nn(Cc2ccccc2)c2c1CCCC2 [compound 127] | – | 3.9 | 9.9 | – | – |
| CCOC(=O)C1CCCc2c1c(C(=O)N[C@H](C)C1CCCCC1)nn2C1CCCCC1 (some centres unmarked) [compound 285] | – | 2400 | 2900 | – | – |
| CCC(NC(=O)c1nn(C2CCCCC2)c2c1CCCC2)C1CCCCC1 (centres unmarked) [compound 234] | – | 10 | 230 | – | – |
| CC(NC(=O)c1nn(C2CCCCC2)c2c1CCCC2)C1CCCC1 (centres unmarked) [compound 193] | – | 5 | 120 | – | – |
| CC12CCC(C1)C(C)(C)C2NC(=O)c1nn(C2CCCCCC2)c2c1CCCC2 (centres unmarked) [compound 74] | – | 1.4 | 15 | – | – |
| CC(c1ccccc1)n1nc(C(=O)NCC2CCCCC2)c2c1CCCC2 (centres unmarked) [compound 242] | – | 1600 | 300 | – | – |
| O=C(NCC1CCCCC1)c1nn(C2CCCCC2)c2c1CCCC2 [Cpd 304, 1-cyclohexyl-4,5,6,7-tetrahydro-1H-indazole-3-carboxylic acid cyclohexylmethylamide] | – | 20 | 160 | – | – |
| CCOC(=O)[C@@H]1CCCC[C@H]1NC(=O)c1nn(C2CCCCC2)c2c1CCCC2 [compound 269] | – | 38.6 | 191 | – | – |
| CC(NC(=O)c1nn(C2CCCCC2)c2c1CC(CO)CC2)C12CC3CC(CC(C3)C1)C2 (centres unmarked) [Cpd 143, 1-cyclohexyl-5-hydroxymethyl-4,5,6,7-tetrahydro-1H-indazole-3-carboxylic acid (1-adamantan-1-yl-ethyl)-amide] | – | 1260 | 2400 | – | – |
| CCOC(=O)C1CCCc2c1c(C(=O)NCC13CC4CC(CC(C4)C1)C3)nn2Cc1ccccc1 (centres unmarked) [compound 159] | – | 130 | 740 | – | – |
| CCOC(=O)C1CCc2c(C(=O)NC(C)C34CC5CC(CC(C5)C3)C4)nn(C3CCCCC3)c2C1 (centres unmarked) [compound 69] | – | 2.7 | 220 | – | – |
| CCOC(=O)C1CCc2c(c(C(=O)NC3C4CCC(C4)C3C(=O)OCC)nn2C2CCCCC2)C1 (centres unmarked) [compound 137] | – | 1550 | 3950 | – | – |
